The results in this text go back to patent US12336981B2, “Compounds and compositions for the inhibition of NAMPT” (Valo Health, Inc., priority 2010, dated 2025).

Structures are written as SMILES. Like-named read-outs stand apart in the source and are kept apart here.

One test has as its system A2780 cells. The experiment in a line: In-vitro cell proliferation assay (SRB), A2780 cells. Type of test: cell-based. The following applies: Homo sapiens, A2780, 72 h, A2780 cells, 72 hours, read-out: A2780 IC50. The method, boiled down:
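Viable cells measured by SRB staining after 6% TCA fixation, absorbance 570 nm. Media-only background subtracted; % inhibition derived at two compound concentrations.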

Another test concerns the target T1, NAMPT (Homo sapiens, UniProt P43490).
T1 construct: His tag; host or cells: E. coli
As to the kind of experiment: Biochemical inhibition assay: NAMPT enzymatic reaction, NMN quantified by mass spectrometry. The following applies: read-out: Biochem IC50. Summed up:
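Inhibition of E. coli-expressed His-tagged human NAMPT, measured as NMN formation by mass spectrometry after a 30 min room-temperature reaction containing 1 μM NAM, 100 μM PRPP and 2.5 mM ATP.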

T1 sequence (P43490 whole entry): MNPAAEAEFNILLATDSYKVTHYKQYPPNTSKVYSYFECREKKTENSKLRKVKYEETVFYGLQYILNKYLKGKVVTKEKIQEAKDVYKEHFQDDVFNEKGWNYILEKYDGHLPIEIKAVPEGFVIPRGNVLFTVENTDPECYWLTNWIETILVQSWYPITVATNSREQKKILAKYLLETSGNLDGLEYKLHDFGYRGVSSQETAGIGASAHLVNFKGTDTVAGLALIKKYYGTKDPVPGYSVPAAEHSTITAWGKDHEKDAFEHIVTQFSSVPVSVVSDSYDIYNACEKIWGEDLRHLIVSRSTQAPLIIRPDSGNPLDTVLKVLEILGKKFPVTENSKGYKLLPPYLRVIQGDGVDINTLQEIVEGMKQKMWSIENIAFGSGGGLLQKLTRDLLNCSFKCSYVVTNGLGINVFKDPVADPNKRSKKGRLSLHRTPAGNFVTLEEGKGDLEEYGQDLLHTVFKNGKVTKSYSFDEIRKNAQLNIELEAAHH

One may read the IC50 as the concentration needed to halve the response being measured. On to `O=C(NCc1ccc(S(=O)(=O)Nc2ccc3c(c2)OCCO3)cc1)c1cc2cnccc2[nH]1` [N-({4-[(2,3-dihydro-1,4-benzodioxin-6-yl)sulfamoyl]phenyl}methyl)-1H-pyrrolo[3,2-c]pyridine-2-carboxamide], for which the IC50 in the test on A2780 cells (SRB assay) and at NAMPT (NAMPT enzymatic reaction) was > 10000 nM throughout.
Consider `O=C(NCc1ccc(S(=O)(=O)c2cc(F)cc(N3CCCC3)c2)cc1)c1cnc2nccn2c1`, for which the IC50 in the test with A2780 cells (SRB) was 2 nM; on NAMPT (NAMPT enzymatic assay), 3.1 nM.
Taken in the same sequence, the figures for `Cn1ncc2ccc(S(=O)(=O)c3ccc(CNC(=O)c4ccc5nccn5c4)cc3)cc21` [N-{[4-(1-methyl-1H-indazole-6-sulfonyl)phenyl]methyl}imidazo[1,2-a]pyridine-6-carboxamide] were 3.9 nM and 5 nM.
Turning to `O=C(NCc1ccc(S(=O)(=O)c2cccc(Cl)c2)cc1)c1cc2ncccc2[nH]1`, the values for the IC50 with A2780 cells (SRB) and on NAMPT (NAMPT enzymatic reaction) were 13 nM and 3.9 nM, respectively.
The matching figures for `COc1cc(S(=O)(=O)c2ccc(CNC(=O)c3cc4ccncc4o3)cc2)ccc1Cl` [N-({4-[(4-chloro-3-methoxybenzene)sulfonyl]phenyl}methyl)furo[2,3-c]pyridine-2-carboxamide]: 6 nM and 5.9 nM.
As to `CC(C)COc1cc(F)cc(S(=O)(=O)c2ccc(CNC(=O)c3cnc4[nH]ncc4c3)cc2)c1` [N-[(4-{[3-fluoro-5-(2-methylpropoxy)benzene]sulfonyl}phenyl)methyl]-1H-pyrazolo[3,4-b]pyridine-5-carboxamide], the IC50 with A2780 cells (SRB) was 9.49 nM; on NAMPT (NAMPT enzymatic assay) it was 11.2 nM.
Regarding `O=C(NCc1ccc(S(=O)(=O)c2cc(F)cc(Cl)c2)cc1)c1cc2cnccc2[nH]1`, the figures for the IC50 in the test on A2780 cells (SRB) and at NAMPT (NAMPT enzymatic reaction) were 1.4 nM and 9.9 nM, respectively.
On to `O=C(NCc1ccc(S(=O)(=O)c2cc(O)ccc2OC(F)(F)F)cc1)c1cnc2[nH]ncc2c1`, for which the IC50 in the test on A2780 cells (SRB) was found to be 67.9 nM; at NAMPT (NAMPT enzymatic assay) it was 21.9 nM.
Take `COc1c(F)cccc1S(=O)(=O)c1ccc(CNC(=O)c2cnc3[nH]ncc3c2)cc1` [N-({4-[(3-fluoro-2-methoxybenzene)sulfonyl]phenyl}methyl)-1H-pyrazolo[3,4-b]pyridine-5-carboxamide]: the IC50 is 100 to 1000 nM in the test on A2780 cells (SRB) and 121 nM on NAMPT (NAMPT enzymatic reaction).
As to `Cn1cnc2ccc(S(=O)(=O)c3ccc(CNC(=O)c4cnc5nccn5c4)cc3)cc21` [N-{[4-(1-methyl-1H-1,3-benzodiazole-6-sulfonyl)phenyl]methyl}imidazo[1,2-a]pyrimidine-6-carboxamide], the IC50 in the test with A2780 cells (SRB) is 33.8 nM; at NAMPT (NAMPT enzymatic assay), 4 nM.
In the case of `O=C(NCc1ccc(S(=O)(=O)c2ccccc2Cl)cc1)c1cc2cnccc2[nH]1` [N-({4-[(2-chlorobenzene)sulfonyl]phenyl}methyl)-1H-pyrrolo[3,2-c]pyridine-2-carboxamide], the values for the IC50 with A2780 cells (SRB assay) and at NAMPT (NAMPT enzymatic reaction) were 117 nM and 6 nM, respectively.
On to `CCCCc1ccc(S(=O)(=O)c2ccc(CNC(=O)c3cc4ccncc4o3)cc2)cc1` [N-({4-[(4-butylbenzene)sulfonyl]phenyl}methyl)furo[2,3-c]pyridine-2-carboxamide], for which the IC50 in the test on A2780 cells (SRB) came to 26.5 nM; at NAMPT (NAMPT enzymatic reaction), 18.1 nM.
Taken in the same sequence, the figures for `COc1cccc(Cl)c1S(=O)(=O)c1ccc(CNC(=O)c2cc3ccncc3s2)cc1` were 2.9 nM and 2.7 nM.
With `O=C(NCc1ccc(S(=O)(=O)c2cccc(OCC(F)(F)F)c2)cc1)c1cc2ccncc2o1` [N-[(4-{[3-(2,2,2-trifluoroethoxy)benzene]sulfonyl}phenyl)methyl]furo[2,3-c]pyridine-2-carboxamide], the values for the IC50 with A2780 cells (SRB) and on NAMPT (NAMPT enzymatic assay) were 12 nM and 7.2 nM, respectively.
The matching figures for `CC(C)CNC(=O)c1cccc(S(=O)(=O)c2ccc(CNC(=O)c3cc4cnccc4[nH]3)cc2)c1`: 45.8 nM and 19.3 nM.
The matching figures for `O=C(NCc1ccc(S(=O)(=O)c2cc(Cl)ccc2OCC(F)F)cc1)c1cc2cnccc2[nH]1`: 0.5 nM and 5 nM.
With `Cn1ncc2c(S(=O)(=O)c3ccc(CNC(=O)c4cnc5[nH]ncc5c4)cc3)cccc21` [N-{[4-(1-methyl-1H-indazole-4-sulfonyl)phenyl]methyl}-1H-pyrazolo[3,4-b]pyridine-5-carboxamide], the IC50 in the test with A2780 cells (SRB) was 6.4 nM; at NAMPT (NAMPT enzymatic assay) it was 20.3 nM.
As to `COc1c(Cl)cccc1S(=O)(=O)c1ccc(CNC(=O)c2cc3ccncc3o2)cc1`, the IC50 amounted to 62.3 nM in the test with A2780 cells (SRB) and 19.2 nM at NAMPT (NAMPT enzymatic reaction).
For `CCNC(=O)c1cccc(S(=O)(=O)c2ccc(CNC(=O)c3cc4ccncc4o3)cc2)c1`, the figures for the IC50 in the test on A2780 cells (SRB) and at NAMPT (NAMPT enzymatic assay) were 6.4 nM and 6 nM, respectively.
With `O=C(NCc1ccc(S(=O)(=O)c2ccc(F)cc2C(F)(F)F)cc1)c1cc2cnccc2[nH]1`, the IC50 came out at 14.1 nM in the test with A2780 cells (SRB) and 27 nM at NAMPT (NAMPT enzymatic assay).
For the compound `Cc1c(Cl)cccc1S(=O)(=O)c1ccc(CNC(=O)c2ccc3nccn3c2)cc1`, the IC50 was 5 nM in the test on A2780 cells (SRB) and 25.7 nM at NAMPT (NAMPT enzymatic reaction).
With `CCOc1ccc(S(=O)(=O)c2ccc(CNC(=O)c3cc4ccncc4s3)cc2)cc1F`, the IC50 with A2780 cells (SRB) amounted to 3.6 nM; on NAMPT (NAMPT enzymatic reaction) it was 8.9 nM.
As to `COc1ccc(S(=O)(=O)c2ccc(CNC(=O)c3cc4cnccc4[nH]3)cc2)c(Cl)c1`, the IC50 was determined as 14.5 nM with A2780 cells (SRB) and 9.3 nM on NAMPT (NAMPT enzymatic reaction).
The matching figures for `Cc1ccc(S(=O)(=O)c2ccc(CNC(=O)c3cnc4nccn4c3)cc2)cc1C`: 1.6 nM and 1.1 nM.
Take `Cn1c(S(=O)(=O)c2ccc(CNC(=O)c3cnc4[nH]ncc4c3)cc2)cc2ccccc21` [N-{[4-(1-methyl-1H-indole-2-sulfonyl)phenyl]methyl}-1H-pyrazolo[3,4-b]pyridine-5-carboxamide]: the IC50 in the test on A2780 cells (SRB) was determined as 13.2 nM; on NAMPT (NAMPT enzymatic assay), 14 nM.
As to `COc1ccc(S(=O)(=O)c2ccc(CNC(=O)c3cnc4[nH]ncc4c3)cc2)cc1Cl`, the IC50 with A2780 cells (SRB) worked out at 3.6 nM; at NAMPT (NAMPT enzymatic reaction) it was 4 nM.
For `Cc1cc(C)c(S(=O)(=O)c2ccc(CNC(=O)c3cnc4nccn4c3)cc2)c(C)c1`, the IC50 is 100 to 1000 nM in the test on A2780 cells (SRB) and 28.8 nM at NAMPT (NAMPT enzymatic reaction).
Take `CC(C)n1cc(S(=O)(=O)c2ccc(CNC(=O)c3ccc4nccn4c3)cc2)cn1` [N-({4-[1-(propan-2-yl)-1H-pyrazole-4-sulfonyl]phenyl}methyl)imidazo[1,2-a]pyridine-6-carboxamide]: the values for the IC50 in the test with A2780 cells (SRB) and at NAMPT (NAMPT enzymatic assay) were 2.7 nM and 8 nM, respectively.
In the case of `COc1cccc(S(=O)(=O)c2ccc(CNC(=O)c3ccc4nccn4c3)cc2)c1F` [N-({4-[(2-fluoro-3-methoxybenzene)sulfonyl]phenyl}methyl)imidazo[1,2-a]pyridine-6-carboxamide], the IC50 with A2780 cells (SRB) came out at 13.5 nM; on NAMPT (NAMPT enzymatic reaction), 33 nM.
Regarding `O=C(NCc1ccc(S(=O)(=O)c2nccs2)cc1)c1ccc2nccn2c1` [N-{[4-(1,3-thiazole-2-sulfonyl)phenyl]methyl}imidazo[1,2-a]pyridine-6-carboxamide], the IC50 in the test on A2780 cells (SRB) was found to be 99.4 nM; on NAMPT (NAMPT enzymatic assay) it was 21 nM.
`CCOc1cc(S(=O)(=O)c2ccc(CNC(=O)c3cc4ccncc4s3)cc2)ccc1F`: the results for the half-maximal inhibitory concentration (IC50) in the test with A2780 cells (SRB) and on NAMPT (NAMPT enzymatic reaction) were 3.1 nM and 3.3 nM, respectively.
The matching figures for `O=C(NCc1ccc(S(=O)(=O)c2ccccc2Cl)cc1)c1ccc2nccn2c1` [N-({4-[(2-chlorobenzene)sulfonyl]phenyl}methyl)imidazo[1,2-a]pyridine-6-carboxamide]: 56.7 nM and 24.1 nM.
Turning to `O=C(NCc1ccc(S(=O)(=O)c2ccc(OC(F)(F)F)cc2)cc1)c1cnc2nccn2c1`, the values for the IC50 in the test with A2780 cells (SRB) and at NAMPT (NAMPT enzymatic assay) were 17.6 nM and 5 nM, respectively.
`COc1ccc(F)c(S(=O)(=O)c2ccc(CNC(=O)c3ccc4nccn4c3)cc2)c1`: the IC50 stood at 12.8 nM in the test on A2780 cells (SRB) and 4.7 nM on NAMPT (NAMPT enzymatic reaction).
For `O=C(NCc1ccc(S(=O)(=O)N2CCCCC2)cc1)c1cn2[nH]ccc2n1` [N-{[4-(piperidine-1-sulfonyl)phenyl]methyl}-1H-imidazo[1,2-b]pyrazole-5-carboxamide], the IC50 in the test on A2780 cells (SRB assay) came out at 11 nM; on NAMPT (NAMPT enzymatic reaction) it was 0.8 nM.
With `O=C(NCc1ccc(S(=O)(=O)c2cccc(C(F)(F)F)c2Cl)cc1)c1cc2cnccc2[nH]1`, the IC50 came to 8.8 nM with A2780 cells (SRB) and 36.4 nM on NAMPT (NAMPT enzymatic assay).
The matching figures for `O=C(NCc1ccc(S(=O)(=O)c2ccc(OCC(F)(F)F)c(F)c2)cc1)c1cnc2nccn2c1`: 7.3 nM and 4.4 nM.
Consider `O=C(NCc1ccc(S(=O)(=O)c2ccccc2)cc1)c1cnc2[nH]ncc2c1` [N-{[4-(benzenesulfonyl)phenyl]methyl}-1H-pyrazolo[3,4-b]pyridine-5-carboxamide], for which the results for the IC50 in the test with A2780 cells (SRB assay) and on NAMPT (NAMPT enzymatic reaction) were 51 nM and 70 nM, respectively.
Taken in the same sequence, the figures for `COc1ccc(S(=O)(=O)c2ccc(CNC(=O)c3cc4ccncc4s3)cc2)cc1OC` [N-({4-[(3,4-dimethoxybenzene)sulfonyl]phenyl}methyl)thieno[2,3-c]pyridine-2-carboxamide] were 0.9 nM and 3 nM.
As for `COc1cc(F)cc(S(=O)(=O)c2ccc(CNC(=O)c3cnc4nccn4c3)cc2)c1`, the IC50 in the test with A2780 cells (SRB) is 3.3 nM; on NAMPT (NAMPT enzymatic reaction), 1.6 nM.
On to `COc1ccc(S(=O)(=O)c2ccc(CNC(=O)c3cc4ccncc4s3)cc2)nc1` [N-{[4-(5-methoxypyridine-2-sulfonyl)phenyl]methyl}thieno[2,3-c]pyridine-2-carboxamide], for which the IC50 was determined as 19.3 nM with A2780 cells (SRB) and 7.1 nM on NAMPT (NAMPT enzymatic assay).
Consider `Cc1c(Cl)cccc1S(=O)(=O)c1ccc(CNC(=O)c2cnc3[nH]ncc3c2)cc1` [N-({4-[(3-chloro-2-methylbenzene)sulfonyl]phenyl}methyl)-1H-pyrazolo[3,4-b]pyridine-5-carboxamide], for which the values for the IC50 in the test on A2780 cells (SRB) and at NAMPT (NAMPT enzymatic reaction) were 16.1 nM and 36.9 nM, respectively.
The matching figures for `O=C(NCc1ccc(S(=O)(=O)c2ccccc2Oc2ccccc2)cc1)c1cc2ccncc2o1`: 1000 to 10000 nM and 20.4 nM.
